From US20240424113A1, “CONJUGATES COMPRISING ANTIFUNGALS AND HEAT SHOCK PROTEIN 90 (HSP90) INHIBITORS AND METHODS OF USE THEREOF” (Bright Angel Therapeutics Inc., priority 2021, published 2024)
In brackets after ≈: the same amount, converted by molar mass.

Key:
[1] = biological target: Hsp90 Nuclear Binding Domain (NBD) (Candida albicans (strain SC5314 / ATCC MYA-2876) (Yeast), UniProt P46598); assay: Surface Plasmon Resonance (SPR) binding, C. albicans Hsp90 NBD; conditions: biotinylated Hsp90 NBD on streptavidin chip, 25° C., 1:1 binding model
How it was run: (§1)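 Biacore S200 at 25° C; AviTag-biotinylated recombinant Hsp90 NBD captured on streptavidin chip at 2000-2500 RU. Compound dilution series run in HBS-P pH 7.4 with 2% DMSO at 40 μL/min, 60 s association and 600 s dissociation. Sensorgrams fitted to a 1:1 binding model.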

HepG2 cells = assay: Mammalian cell toxicity (Cell Titer-Glo); format: cell-based
Protocol: Mammalian Cell Toxicity. HepG2 cells were seeded overnight at 500 cells/well in 384-well plate, then incubated with compounds (10-point concentration titration) for 48 h. Cell Titer-Glo® reagent ([…]) was added to each well and after 10-minute incubation at room temperature the luminescent signal was measured using an Envision plate reader (Perkin Elmer).

[2] = biological target: Hsp90 Nuclear Binding Domain (NBD) (Aspergillus fumigatus, UniProt P40292); assay: Surface Plasmon Resonance (SPR) binding, A. fumigatus Hsp90 NBD; conditions: biotinylated Hsp90 NBD on streptavidin chip, 25° C., 1:1 binding model; NB undefined
How it was run: as §1

CaCl2 = assay: Antifungal sensitivity testing (broth microdilution MIC); format: cell-based; conditions: 96-well broth microdilution
How it was run: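 Broth microdilution MIC per a modified published protocol; compounds dissolved in DMSO, fluconazole in water; duplicates in at least two independent experiments. Fungicidal activity checked by spotting MIC-plate cultures onto YPD agar, read after 24 h at 30° C.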

Hsp90 Nuclear Binding Domain (NBD) (Aspergillus fumigatus, UniProt P40292), sequence (P40292 whole entry, looked up, the tested form may be a part): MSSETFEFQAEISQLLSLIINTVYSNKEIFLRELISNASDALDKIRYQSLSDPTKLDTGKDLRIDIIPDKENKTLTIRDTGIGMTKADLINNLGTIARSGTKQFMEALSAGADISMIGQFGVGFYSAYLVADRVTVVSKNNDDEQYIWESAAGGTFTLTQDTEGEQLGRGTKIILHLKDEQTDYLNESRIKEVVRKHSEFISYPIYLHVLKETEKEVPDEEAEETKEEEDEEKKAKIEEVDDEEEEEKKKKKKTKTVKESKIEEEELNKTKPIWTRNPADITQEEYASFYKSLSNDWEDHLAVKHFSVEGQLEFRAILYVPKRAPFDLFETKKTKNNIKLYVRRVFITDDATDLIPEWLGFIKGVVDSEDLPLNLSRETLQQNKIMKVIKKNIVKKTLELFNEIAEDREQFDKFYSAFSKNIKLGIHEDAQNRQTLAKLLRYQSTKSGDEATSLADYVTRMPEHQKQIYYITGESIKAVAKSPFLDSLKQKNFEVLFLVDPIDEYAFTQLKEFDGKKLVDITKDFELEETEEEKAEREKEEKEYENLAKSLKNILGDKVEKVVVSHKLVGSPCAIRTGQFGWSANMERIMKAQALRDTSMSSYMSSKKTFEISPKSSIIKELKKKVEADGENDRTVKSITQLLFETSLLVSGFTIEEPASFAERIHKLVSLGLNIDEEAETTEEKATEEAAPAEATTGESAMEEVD
Hsp90 Nuclear Binding Domain (NBD) (Candida albicans (strain SC5314 / ATCC MYA-2876) (Yeast), UniProt P46598), sequence (P46598 1-218 limits assumed): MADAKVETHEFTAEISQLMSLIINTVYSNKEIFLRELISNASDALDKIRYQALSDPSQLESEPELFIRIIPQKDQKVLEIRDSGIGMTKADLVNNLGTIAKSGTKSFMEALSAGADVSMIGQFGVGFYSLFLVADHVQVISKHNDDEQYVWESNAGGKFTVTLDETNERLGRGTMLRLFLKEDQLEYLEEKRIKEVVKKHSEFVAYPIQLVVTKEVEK

Structure (SMILES)	Kd [1] [nM]	HepG2 MIC50 (HepG2 cells; Table 6, 48 h incubation) [µM]	Kd [2] [nM]	MIC50 (CaCl2; Table 4) [µM]	MIC50 (CaCl2; Table 6) [µM]	HepG2 MIC50 (HepG2 cells; Table 5, 48 h incubation) [µM]
CC(O)c1c(C(=O)NC2CCN(CC(O)(Cn3cncn3)c3ccc(F)cc3F)CC2)sc2nc(N)c(=O)n(-c3ccc4ccn(-c5ccccc5)c4c3)c12 (stereo not drawn) [Compound I-56, 3-amino-N-(1-(2-(2,4-difluorophenyl)-2-hydroxy-3-(1H-1,2,4-triazol-1-yl)propyl)piperidin-4-yl)-7-(1-hydroxyethyl)-2-oxo-1-(1-phenyl-1H-indol-6-yl)-1,2-dihydrothieno[2,3-b]pyrazine-6-carboxamide]	64.6	>10	229	3 (≈ 2.3 µg/mL)	3 (≈ 2.3 µg/mL)	
Nc1nc2sc(CNC3CCN(C[C@@](O)(Cn4cncn4)c4ccc(F)cc4F)CC3)cc2n(-c2ccc3c(c2)N(c2ccccc2)CCO3)c1=O [Compound I-62, (R)-3-amino-6-(((1-(2-(2,4-difluorophenyl)-2-hydroxy-3-(1H-1,2,4-triazol-1-yl)propyl)piperidin-4-yl)amino)methyl)-1-(4-phenyl-3,4-dihydro-2H-benzo[b][1,4]oxazin-6-yl)thieno[2,3-b]pyrazin-2(1H)-one]	234	10.6	423	3 (≈ 2.18 µg/mL)	3 (≈ 2.18 µg/mL)	
Nc1nc2sc(C(=O)NC3CCN(CCCC(O)(Cn4cncn4)c4ccc(F)cc4F)CC3)cc2n(-c2ccc3c(c2)N(c2ccccc2)CCO3)c1=O (stereo not drawn) [Compound I-64, 3-amino-N-(1-(4-(2,4-difluorophenyl)-4-hydroxy-5-(1H-1,2,4-triazol-1-yl)pentyl)piperidin-4-yl)-2-oxo-1-(4-phenyl-3,4-dihydro-2H-benzo[b][1,4]oxazin-6-yl)-1,2-dihydrothieno[2,3-b]pyrazine-6-carboxamide]	0.9	2	19.3	3.12 (≈ 2.4 µg/mL)	3.13 (≈ 2.4 µg/mL)	
Nc1nc2sc(CNCC3CCN(CC(O)(Cn4cncn4)c4ccc(F)cc4F)CC3)cc2n(-c2ccc3c(c2)N(c2ccccc2)CCO3)c1=O (stereo not drawn) [Compound I-67, 3-amino-6-((((1-(2-(2,4-difluorophenyl)-2-hydroxy-3-(1H-1,2,4-triazol-1-yl)propyl)piperidin-4-yl)methyl)amino)methyl)-1-(4-phenyl-3,4-dihydro-2H-benzo[b][1,4]oxazin-6-yl)thieno[2,3-b]pyrazin-2(1H)-one]	402	4.7	503	2.25 (≈ 1.66 µg/mL)	2.25 (≈ 1.66 µg/mL)	
Nc1nc2sc(C(=O)N[C@@H]3CCN(CC[C@@](O)(Cn4cncn4)c4ccc(F)cc4F)C3)cc2n(-c2ccc3c(c2)N(c2ccccc2)CCO3)c1=O [Compound I-70, 3-amino-N-((R)-1-((S)-3-(2,4-difluorophenyl)-3-hydroxy-4-(1H-1,2,4-triazol-1-yl)butyl)pyrrolidin-3-yl)-2-oxo-1-(4-phenyl-3,4-dihydro-2H-benzo[b][1,4]oxazin-6-yl)-1,2-dihydrothieno[2,3-b]pyrazine-6-carboxamide]	0.3	1.5	2.9	5.75 (≈ 4.25 µg/mL)	5.75 (≈ 4.25 µg/mL)	
Nc1nc2sc(CNC3CCN(CCC(O)(Cn4cncn4)c4ccc(F)cc4F)CC3)cc2n(-c2ccc3c(c2)N(c2ccccc2)CCO3)c1=O (stereo not drawn) [Compound I-72, 3-amino-6-(((1-(3-(2,4-difluorophenyl)-3-hydroxy-4-(1H-1,2,4-triazol-1-yl)butyl)piperidin-4-yl)amino)methyl)-1-(4-phenyl-3,4-dihydro-2H-benzo[b][1,4]oxazin-6-yl)thieno[2,3-b]pyrazin-2(1H)-one]	121	4.6	197	7.5 (≈ 5.55 µg/mL)	7.5 (≈ 5.55 µg/mL)	
CC(F)(F)COC(=O)N1Cc2nc(N)nc(-c3c(Cl)cc(Cl)cc3OCCC(O)(Cn3cncn3)c3ccc(F)cc3F)c2C1 (stereo not drawn) [Compound I-115, 2,2-difluoropropyl-2-amino-4-(2,4-dichloro-6-(3-(2,4-difluorophenyl)-3-hydroxy-4-(1H-1,2,4-triazol-1-yl)butoxy)phenyl)-5,7-dihydro-6H-pyrrolo[3,4-d]pyrimidine-6-carboxylate]	1200	>20	1170	6.5 (≈ 4.36 µg/mL)	6.5 (≈ 4.36 µg/mL)	
Nc1nc2sc(CNC3CCN(CCCCCC(O)(Cn4cncn4)c4ccc(F)cc4F)CC3)cc2n(-c2ccc3c(c2)N(c2ccccc2)CCO3)c1=O (stereo not drawn) [Compound I-118, 3-amino-6-(((1-(6-(2,4-difluorophenyl)-6-hydroxy-7-(1H-1,2,4-triazol-1-yl)heptyl)piperidin-4-yl)amino)methyl)-1-(4-phenyl-3,4-dihydro-2H-benzo[b][1,4]oxazin-6-yl)thieno[2,3-b]pyrazin-2(1H)-one]	191	3	406	2 (≈ 1.56 µg/mL)	2 (≈ 1.56 µg/mL)	3
Nc1nc2sc(CNCC3CCN(C[C@@](O)(Cn4cncn4)c4ccc(F)cc4F)CC3)cc2n(-c2ccc3c(c2)N(c2ccccc2)CCO3)c1=O [Compound I-122, (R)-3-amino-6-((((1-(2-(2,4-difluorophenyl)-2-hydroxy-3-(1H-1,2,4-triazol-1-yl)propyl)piperidin-4-yl)methyl)amino)methyl)-1-(4-phenyl-3,4-dihydro-2H-benzo[b][1,4]oxazin-6-yl)thieno[2,3-b]pyrazin-2(1H)-one]	1630	14.3	1900	6.5 (≈ 4.81 µg/mL)	6.5 (≈ 4.81 µg/mL)	
Nc1nc2sc(CN[C@H]3CCCN(C[C@](O)(Cn4cncn4)c4ccc(F)cc4F)C3)cc2n(-c2ccc3c(c2)N(c2ccccc2)CCO3)c1=O [Compound I-130, 3-amino-6-((((S)-1-((S)-2-(2,4-difluorophenyl)-2-hydroxy-3-(1H-1,2,4-triazol-1-yl)propyl)piperidin-3-yl)amino)methyl)-1-(4-phenyl-3,4-dihydro-2H-benzo[b][1,4]oxazin-6-yl)thieno[2,3-b]pyrazin-2(1H)-one]	1580	>20	2190	1.75 (≈ 1.27 µg/mL)	1.75 (≈ 1.27 µg/mL)	>20
Nc1nc2sc(CNC3CCN(CC[C@@](O)(Cn4cncn4)c4ccc(F)cc4F)CC3)cc2n(-c2ccc3c(c2)N(c2ccccc2)CCO3)c1=O [Compound I-133, (S)-3-amino-6-(((1-(3-(2,4-difluorophenyl)-3-hydroxy-4-(1H-1,2,4-triazol-1-yl)butyl)piperidin-4-yl)amino)methyl)-1-(4-phenyl-3,4-dihydro-2H-benzo[b][1,4]oxazin-6-yl)thieno[2,3-b]pyrazin-2(1H)-one]	300	16.8	620	2.13 (≈ 1.58 µg/mL)	2.13 (≈ 1.58 µg/mL)	
Nc1nc2sc(CN3CCC(NCC(O)(Cn4cncn4)c4ccc(F)cc4F)CC3)cc2n(-c2ccc3c(c2)N(c2ccccc2)CCO3)c1=O (stereo not drawn) [Compound I-134, 3-amino-6-((4-((2-(2,4-difluorophenyl)-2-hydroxy-3-(1H-1,2,4-triazol-1-yl)propyl)amino)piperidin-1-yl)methyl)-1-(4-phenyl-3,4-dihydro-2H-benzo[b][1,4]oxazin-6-yl)thieno[2,3-b]pyrazin-2(1H)-one]	665	15	1050	3.13 (≈ 2.27 µg/mL)	3.13 (≈ 2.27 µg/mL)	
Nc1nc2sc(CNC3CCN(CC(=O)OCCC(O)(Cn4cncn4)c4ccc(F)cc4F)CC3)cc2n(-c2ccc3c(c2)N(c2ccccc2)CCO3)c1=O (stereo not drawn) [Compound I-136, 3-(2,4-difluorophenyl)-3-hydroxy-4-(1H-1,2,4-triazol-1-yl)butyl 2-(4-(((3-amino-2-oxo-1-(4-phenyl-3,4-dihydro-2H-benzo[b][1,4]oxazin-6-yl)-1,2-dihydrothieno[2,3-b]pyrazin-6-yl)methyl)amino)piperidin-1-yl)acetate]	271	19.4	529	6.25 (≈ 4.99 µg/mL)	6.25 (≈ 4.99 µg/mL)	
CC1CC(NCc2cc3c(nc(N)c(=O)n3-c3ccc4c(c3)N(c3ccccc3)CCO4)s2)CCN1CC(O)(Cn1cncn1)c1ccc(F)cc1F (stereo not drawn) [Compound I-138, 3-amino-6-(((1-(2-(2,4-difluorophenyl)-2-hydroxy-3-(1H-1,2,4-triazol-1-yl)propyl)-2-methylpiperidin-4-yl)amino)methyl)-1-(4-phenyl-3,4-dihydro-2H-benzo[b][1,4]oxazin-6-yl)thieno[2,3-b]pyrazin-2(1H)-one]	445	7.9	674	2.3 (≈ 1.7 µg/mL)	2.3 (≈ 1.7 µg/mL)	
Nc1nc2sc(CNC3CCN(CC(O)(Cn4ccnc4)c4ccc(F)cc4F)CC3)cc2n(-c2ccc3c(c2)N(c2ccccc2)CCO3)c1=O (stereo not drawn) [Compound I-139, 3-amino-6-(((1-(2-(2,4-difluorophenyl)-2-hydroxy-3-(1H-imidazol-1-yl)propyl)piperidin-4-yl)amino)methyl)-1-(4-phenyl-3,4-dihydro-2H-benzo[b][1,4]oxazin-6-yl)thieno[2,3-b]pyrazin-2(1H)-one]	151	3.9	246	1.2 (≈ 0.87 µg/mL)	1.2 (≈ 0.87 µg/mL)	3.9
